Assays:
[1] = molecular target: T1, Heme oxygenase 1 (Homo sapiens) (UniProt P09601); experiment: Residual activity of human recombinant HO1 expressed in Escherichia coli DH5alpha assessed as remaining heme at 25 uM by spectrophotometry in absence of L-ascorbic acid relative to control
T1 sequence (whole entry): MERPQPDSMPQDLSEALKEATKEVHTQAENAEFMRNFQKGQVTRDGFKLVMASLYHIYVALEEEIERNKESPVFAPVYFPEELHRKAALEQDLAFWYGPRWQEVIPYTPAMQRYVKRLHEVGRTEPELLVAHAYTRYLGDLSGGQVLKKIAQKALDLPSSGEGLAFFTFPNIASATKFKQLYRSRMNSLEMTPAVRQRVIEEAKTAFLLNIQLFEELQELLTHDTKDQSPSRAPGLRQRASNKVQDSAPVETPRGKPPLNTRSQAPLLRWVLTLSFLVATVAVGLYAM

[2] = molecular target: T1, Heme oxygenase 1 (Homo sapiens); experiment: Residual activity of human recombinant HO1 expressed in Escherichia coli DH5alpha assessed as remaining heme at 50 uM by spectrophotometry in absence of L-ascorbic acid relative to control
[3] = molecular target: T1, Heme oxygenase 1 (Homo sapiens); experiment: Inhibition of human recombinant HO1 expressed in Escherichia coli DH5alpha assessed as heme degradation at 25 uM by spectrophotometry in presence of L-ascorbic acid relative to control; parameters: scale not given: the % may be the effect or the level left
[4] = molecular target: T1, Heme oxygenase 1 (Homo sapiens); experiment: Inhibition of human recombinant HO1 expressed in Escherichia coli DH5alpha assessed as heme degradation at 10 uM by spectrophotometry in presence of L-ascorbic acid relative to control

Row | SMILES | residual activity [1] | residual activity [2] | Activity [3] | inhibition [4]
1 | O=C(Cn1ccnc1)C12CC3CC(CC(C3)C1)C2 | 44% | 54% | – | –
2 | Clc1ccc(CCC2(Cn3ccnc3)OCCO2)cc1 | 65% | 80% | 15% | 39%

From ChEMBL document CHEMBL1140121, “X-ray crystal structure of human heme oxygenase-1 in complex with 1-(adamantan-1-yl)-2-(1H-imidazol-1-yl)ethanone: a common binding mode for imidazole-based heme oxygenase-1 inhibitors” (J Med Chem, 2008)
